The target in data set [1] is T1, TtPth (Thermus thermophilus peptidyl-tRNA hydrolase) (Thermus thermophilus, UniProt Q5SHZ2).
T1 construct: gene pth; wild type, full length (183 residues inferred from deletion of C-terminal 16 leaving Gly167 as last residue); monomer; wild type for crystals expressed and purified as described previously
The experiment in a line: X-ray crystal structure (co-crystallisation), […] Å. Format: binding. The settings on record: 40 mM AMP in reservoir, MES pH 5.8, 20 °C; active site cleft, acidic pocket, A76 mimic.

Data set [2] concerns the molecule itself. Nature of the data set: crystal structure; crystals of ΔC16 TtPth (13 mg/ml, with 20 mM 3′-(N-acetyl-L-alanyl)amino-3′-deoxyadenosine, which was not seen in the density); 0.5 M (NH4)2SO4, 0.1 M Tris-HCl pH 7.5, 30% PEG600, 10% glycerol, 20 °C; contact between crystallographically related molecules, 2.10 Å.

T1 sequence (Q5SHZ2 whole entry): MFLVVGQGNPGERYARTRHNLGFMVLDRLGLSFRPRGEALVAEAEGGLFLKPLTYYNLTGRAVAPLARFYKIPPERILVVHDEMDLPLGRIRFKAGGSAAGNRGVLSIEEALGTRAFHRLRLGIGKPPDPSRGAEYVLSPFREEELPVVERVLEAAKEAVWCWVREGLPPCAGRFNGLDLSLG

Take `Nc1ncnc2c1ncn2[C@@H]1O[C@H](COP(=O)(O)O)[C@@H](O)[C@H]1O` [adenosine 5′-monophosphate]: the “X-ray crystal structure (co-crystallisation), 1.60 Å” value in data set [1] is given as “The structure of TtPth⋅AMP revealed that AMP is bound to an acidic pocket”.

B1: C-terminal 16-amino acid deletion mutant of Thermus thermophilus HB8 peptidyl-tRNA hydrolase (ΔC16 TtPth) (domain or fragment, UniProt Q5SHZ2 1-167, looked up)
chain: MFLVVGQGNPGERYARTRHNLGFMVLDRLGLSFRPRGEALVAEAEGGLFLKPLTYYNLTGRAVAPLARFYKIPPERILVVHDEMDLPLGRIRFKAGGSAAGNRGVLSIEEALGTRAFHRLRLGIGKPPDPSRGAEYVLSPFREEELPVVERVLEAAKEAVWCWVREG
notes: Peptidyl-tRNA hydrolase (Pth, Pth1 type) of Thermus thermophilus HB8, lacking the C-terminal 16 amino acid residues (the C-terminal α-helix); the construct ends with Arg165-Glu166-Gly167; The His-tag was removed with thrombin; also called TtPth⋅tripeptide; C-terminal α-helix (C-terminal 16 amino acid residues) deletion mutant; source: E. coli BL21(DE3), purified (Ni-chelating column, thrombin …)
With B1, the binding result in data set [2] is on record as “binds”.

Source of the values: article PMC11994314, “Binding mode between peptidyl-tRNA hydrolase and the peptidyl-A76 moiety of the substrate” (The Journal of Biological Chemistry, 2025).
